In patent publication US6235759A, “Dihydropyridinones and pyrrolinones useful as alpha 1A adrenoceptor antagonists” (Merck & Co., Inc., priority 1999, dated 2001):

Tests used:
[1] = target: T1, human alpha 1a adrenergic receptor (Homo sapiens, UniProt P35348); experiment: Screening Assay: Alpha 1a Adrenergic Receptor Binding ([125I]-HEAT competition)
T1 construct: expressed in transfected cells; host or cells: stably transfected human alpha 1a cell line (ATCC CRL 11140)
T1 sequence (P35348 1-466): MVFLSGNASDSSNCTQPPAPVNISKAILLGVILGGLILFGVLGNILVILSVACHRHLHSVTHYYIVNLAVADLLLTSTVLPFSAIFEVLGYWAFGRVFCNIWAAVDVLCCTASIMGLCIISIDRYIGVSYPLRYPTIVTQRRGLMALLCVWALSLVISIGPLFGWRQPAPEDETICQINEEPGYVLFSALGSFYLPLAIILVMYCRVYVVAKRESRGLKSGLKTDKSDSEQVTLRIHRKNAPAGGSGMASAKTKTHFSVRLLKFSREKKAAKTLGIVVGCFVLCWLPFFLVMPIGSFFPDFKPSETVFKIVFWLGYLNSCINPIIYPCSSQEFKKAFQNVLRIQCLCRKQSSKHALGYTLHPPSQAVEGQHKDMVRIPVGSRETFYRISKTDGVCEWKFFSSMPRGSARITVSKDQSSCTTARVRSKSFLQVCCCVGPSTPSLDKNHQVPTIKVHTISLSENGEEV
Description: Screening Assay: Alpha 1a Adrenergic Receptor Binding
Membranes prepared from the stably transfected human alpha 1a cell line (ATCC CRL 11140) were used to identify compounds that bind to the human alpha 1a adrenergic receptor. These competition binding reactions (total volume=200 μl) contained 50 mM Tris-HCl pH. 7.4, 5 mM EDTA, 150 mM NaCl, 100 pM [^125 I]-HEAT, membranes prepared from the alpha 1a cell line and increasing amounts of unlabeled ligand. Reactions were incubated at room temperature for one hour with shaking. Reactions were filtered onto Whatman GF/C glass fiber filters with a Inotec 96 well cell harvester. Filters were washed three times with ice cold buffer and bound radioactivity was determined (Ki).

[2] = test system: human alpha 1b adrenergic receptor; experiment: Selective Binding Assay, alpha 1b ([125I]-HEAT competition); settings: alpha 1a versus alpha 1b
Description: Membranes prepared from stably transfected human alpha 1d and alpha 1b cell lines (ATCC CRL 11138 and CRL 11139, respectively) were used to identify compounds that selectively bind to the human alpha 1a adrenergic receptor. These competition binding reactions (total volume=200 μl) contained 50 mM Tris-HCl pH. 7.4, 5 mM EDTA, 150 mM NaCl, 100 pM [^125 I]-HEAT, membranes prepared from cell lines transfected with the respective alpha 1 subtype expression plasmid and increasing amounts of unlabeled ligand. Reactions were incubated at room temperature for one hour with shaking. Reactions were filtered onto Whatman GF/C glass fiber filters with a Inotec 96 well cell harvester. Filters were washed three times with ice cold buffer and bound radioactivity was determined (Ki).

Compound	Ki ([1]; human alpha 1a cell line membranes, 100 pM [125I]-HEAT, room temperature, one hour) [nM]	selectivity in binding to alpha 1a receptors versus alpha 1b [2]	alpha 1 antagonist activity of the (S) enantiomer relative to the (R) enantiomer ([1]; enantiomer comparison, in words, test not specified)
CC1=C(C(=O)NCCCN2CCC(C#N)(c3ccccn3)CC2)[C@@H](c2ccc(F)c(F)c2)CC(=O)N1C [Example 17, 4-(R)-(3 ,4-Difluorophenyl)-1,6-dimethyl-3,4-dihydro-2-pyridinone-5-carboxylic acid{3-[4-(2-pyridyl)-4-cyano-piperidine-1-yl]-propyl}amide]	257	about 8 fold	–
CC1=C(C(=O)NCCCN2CCC(c3ccc(F)cc3)CC2)[C@H](c2ccc(F)c(F)c2)CC(=O)N1 [Example 18 (S enantiomer), 4-(S)-(3,4-difluorophenyl)-6-methyl-3,4-dihydro-2-pyridinone-5-carboxylic acid{3-[4-(4-fluorophenyl)-piperidine-1-yl]-propyl}amide]	–	–	less active
